Measured values as given in patent US20100234377A1 (priority 2007, published 2010).
Where two headings read alike, the source gives them in different places.

Legend:
PPARγ (h) = molecular target: T1, PPARγ (h) (Homo sapiens, UniProt P37231); assay: PPARγ receptor binding assay ([3H]rosiglitazone); conditions: Table 3; [3H]rosiglitazone 10 nM, human recombinant
T1 construct: host or cells: E. coli
T1 sequence (P37231 1-505): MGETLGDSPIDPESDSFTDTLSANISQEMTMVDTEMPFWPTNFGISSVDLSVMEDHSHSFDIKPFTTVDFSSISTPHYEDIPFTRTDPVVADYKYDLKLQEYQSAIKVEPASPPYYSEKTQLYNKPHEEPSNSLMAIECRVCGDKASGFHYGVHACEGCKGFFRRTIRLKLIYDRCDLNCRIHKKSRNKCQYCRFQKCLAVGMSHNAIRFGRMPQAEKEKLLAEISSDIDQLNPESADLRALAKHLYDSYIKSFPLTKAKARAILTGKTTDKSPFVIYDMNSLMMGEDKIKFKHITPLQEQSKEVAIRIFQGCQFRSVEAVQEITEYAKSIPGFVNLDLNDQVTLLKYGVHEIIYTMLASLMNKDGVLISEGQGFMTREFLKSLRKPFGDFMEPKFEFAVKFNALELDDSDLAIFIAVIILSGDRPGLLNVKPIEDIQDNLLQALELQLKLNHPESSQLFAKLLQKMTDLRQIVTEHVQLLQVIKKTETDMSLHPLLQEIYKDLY
Excerpt: Selected GST2 Inhibitors Screened Against PPARγ and KATP Channel Modulator Assays
Selected GST2 inhibitors of General Formula (I) were screened in a PPARγ assay to determine their modulator effects.
(§1) The specific ligand binding to the receptor is defined as the difference between the total binding and the non-specific binding determined in the presence of an excess of unlabelled ligand. The results are expressed as a percent inhibition of control specific binding obtained in the presence of the test compounds.
(§2) In each experiment, the respective reference compound was tested concurrently with the test compounds in order to assess the assay suitability. It was tested at several concentrations (for IC50 value determination), and the data were compared with historical values.

K+ATP channel = K+ATP channel (Rattus norvegicus, UniProt Q09429); assay: KATP channel receptor binding assay ([3H]glibenclamide); conditions: [3H]glibenclamide 0.1 nM, rat cerebral cortex; for inhibition at 10 µM: Table 1, 10 μM compound concentration, read-out: K^+ATP Channel (% Inhibition of Control Specific Binding); for K+ATP Channel (% Inhibition of Control Specific Binding): Table 3
Chain of K+ATP channel (Q09429 whole entry): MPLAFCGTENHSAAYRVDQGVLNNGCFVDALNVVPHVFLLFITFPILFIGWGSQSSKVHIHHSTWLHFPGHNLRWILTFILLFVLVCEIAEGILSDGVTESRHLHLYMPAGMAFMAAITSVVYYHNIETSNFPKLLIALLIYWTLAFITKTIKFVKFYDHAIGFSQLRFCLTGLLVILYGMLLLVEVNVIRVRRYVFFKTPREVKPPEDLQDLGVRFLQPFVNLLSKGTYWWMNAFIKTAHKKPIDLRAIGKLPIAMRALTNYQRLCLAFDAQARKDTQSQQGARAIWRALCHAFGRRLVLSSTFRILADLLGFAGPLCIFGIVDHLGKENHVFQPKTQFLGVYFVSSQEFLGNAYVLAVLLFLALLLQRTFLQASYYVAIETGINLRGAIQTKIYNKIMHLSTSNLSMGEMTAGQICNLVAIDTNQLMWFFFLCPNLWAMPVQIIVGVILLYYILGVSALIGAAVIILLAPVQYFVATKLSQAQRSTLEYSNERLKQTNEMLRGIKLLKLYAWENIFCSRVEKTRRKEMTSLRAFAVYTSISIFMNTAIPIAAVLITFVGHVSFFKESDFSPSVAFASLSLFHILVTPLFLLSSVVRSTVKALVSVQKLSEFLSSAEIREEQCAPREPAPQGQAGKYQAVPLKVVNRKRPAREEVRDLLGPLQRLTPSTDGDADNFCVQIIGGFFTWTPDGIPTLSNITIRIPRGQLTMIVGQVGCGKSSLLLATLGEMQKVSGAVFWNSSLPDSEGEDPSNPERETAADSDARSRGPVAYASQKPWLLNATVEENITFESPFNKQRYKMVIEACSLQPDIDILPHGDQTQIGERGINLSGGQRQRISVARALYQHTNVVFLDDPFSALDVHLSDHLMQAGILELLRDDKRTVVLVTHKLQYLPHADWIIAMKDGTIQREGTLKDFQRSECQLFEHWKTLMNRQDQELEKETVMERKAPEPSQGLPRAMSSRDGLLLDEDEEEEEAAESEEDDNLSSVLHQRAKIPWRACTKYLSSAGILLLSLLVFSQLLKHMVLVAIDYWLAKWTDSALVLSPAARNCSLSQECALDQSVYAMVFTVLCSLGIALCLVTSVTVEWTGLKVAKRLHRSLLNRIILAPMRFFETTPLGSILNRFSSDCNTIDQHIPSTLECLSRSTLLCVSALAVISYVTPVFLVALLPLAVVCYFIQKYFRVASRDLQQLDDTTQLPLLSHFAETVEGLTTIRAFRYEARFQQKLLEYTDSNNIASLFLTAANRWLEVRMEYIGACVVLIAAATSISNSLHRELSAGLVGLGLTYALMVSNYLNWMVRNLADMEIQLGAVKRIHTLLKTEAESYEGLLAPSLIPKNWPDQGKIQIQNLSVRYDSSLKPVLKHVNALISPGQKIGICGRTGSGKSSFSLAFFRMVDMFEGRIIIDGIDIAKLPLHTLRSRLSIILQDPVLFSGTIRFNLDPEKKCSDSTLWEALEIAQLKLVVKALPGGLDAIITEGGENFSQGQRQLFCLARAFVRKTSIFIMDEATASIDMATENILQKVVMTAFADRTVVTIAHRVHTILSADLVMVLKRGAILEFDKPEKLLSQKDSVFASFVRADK
Chain of K+ATP channel (P70673 whole entry partner): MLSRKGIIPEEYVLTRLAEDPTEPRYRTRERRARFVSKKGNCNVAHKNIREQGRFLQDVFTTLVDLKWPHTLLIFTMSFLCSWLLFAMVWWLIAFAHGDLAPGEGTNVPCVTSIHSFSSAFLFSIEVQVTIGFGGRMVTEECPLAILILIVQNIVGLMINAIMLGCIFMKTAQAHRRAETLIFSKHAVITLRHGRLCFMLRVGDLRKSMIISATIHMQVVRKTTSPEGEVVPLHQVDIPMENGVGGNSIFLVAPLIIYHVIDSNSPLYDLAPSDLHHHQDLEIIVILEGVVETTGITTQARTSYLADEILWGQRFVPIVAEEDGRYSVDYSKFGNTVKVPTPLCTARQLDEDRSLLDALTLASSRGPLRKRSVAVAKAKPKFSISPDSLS
Experimental: KATP Channel Mediated Binding Assay
The compounds of Comparative Examples I to XII and Compounds 59, 30, 22, 76 and 69 were tested for their effects in an in vitro receptor binding KATP channel assay.
as §1, §2

[1] = molecular target: T2, human Prostaglandin D Synthase (GST2) (Homo sapiens, UniProt O60760); assay: Homogeneous biochemical assay of human Prostaglandin D Synthase (GST2) based on its glutathion-S-transferase activity (GSH conjugation to monochlorobimane, fluorescence)
T2 construct: the open reading frame of human Prostaglandin D Synthase was amplified from cDNA; made in house; host or cells: E. coli TOP10F'
T2 sequence (O60760 whole entry): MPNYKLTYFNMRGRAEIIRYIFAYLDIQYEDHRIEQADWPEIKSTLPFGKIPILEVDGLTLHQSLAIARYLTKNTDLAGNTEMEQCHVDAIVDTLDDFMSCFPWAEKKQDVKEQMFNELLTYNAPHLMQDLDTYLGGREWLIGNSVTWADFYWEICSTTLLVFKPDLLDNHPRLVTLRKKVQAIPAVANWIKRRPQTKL
Method in brief: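 N-His-tagged human PGD synthase from E. coli, assayed via its GST activity: GSH conjugation to monochlorobimane in 50 mM MES/KOH pH 6.1, 0.7 mM GSH, 2 mM MgCl2. Compounds at final picomolar to triple-digit micromolar concentrations.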

[2] = Mouse microsomal metabolism assay; type: in vitro ADME; conditions: liver microsomes; mouse hepatic microsomes, 37° C., phosphate buffer pH 7.4, NADPH regenerating system; read-out: Mouse t½
Experimental: Selected GST2 Inhibitors from Formula I Assessed in Mouse Microsomal Metabolism Assay
Selected GST2 inhibitors of General Formula (I) were screened in a mouse hepatic microsome assay to determine microsomal metabolism.
Test Articles were prepared in 50% acetonitrile.
Mouse hepatic microsomes supplied by BD GenTest Inc or an equivalent reputable supplier.
Test Articles are added to incubation plates containing phosphate buffer pH 7.4 and microsomes at a suitable protein concentration. Incubation plates are placed on a shaking water bath at 37° C. for 5 minutes pre-incubation. An aliquot of the reaction mixture is taken and added to acetonitrile (3:1). This is designated time […]. NADPH regenerating system in phosphate buffer pH 7.4 is added to initiate reactions. Aliquots from the incubation wells are taken at a number of time points and added to acetonitrile. Control incubations contained no microsomes or compounds with known microsomal stabilities. Samples were subject to centrifugation to remove denatured protein and the supernatants were analysed by LCMS.
Half lives were calculated from the log vs time transformed data according to the following equation: […]
Where λ is the slope of the linear regression line under first order (Test Article concentration <Km) conditions.

[3] = Table 1, read-out: GST2 IC50 Range
[4] = Table 3, read-out: GST2 IC50 range
[5] = given beside the compound name in Examples 1 to 167, read-out: Potency Range (GST2 IC50)

| PPARγ (% Inhibition of Control Specific Binding) (PPARγ (h)) | inhibition at 10 µM (K+ATP channel) | K+ATP Channel (% Inhibition of Control Specific Binding) (K+ATP channel) | IC50 [1, 3] | IC50 [1, 4] | IC50 [1, 5] | half-life [2] | Structure (SMILES) |
| --- | --- | --- | --- | --- | --- | --- | --- |
| 15% | 15% | 12% | 11 to 100 nM | 11 to 100 nM | 11 to 100 nM | – | O=C(Nc1ccc(N2CCN(C(=O)OC3CCOC3)CC2)c(F)c1)N1CCN(C(=O)c2cccc(F)c2)CC1 (racemic) [Compound 59, 4-(2-Fluoro-4-{[4-(3-fluoro-benzoyl)-piperazine-1-carbonyl]-amino}-phenyl)-piperazine-1-carboxylic acid tetrahydro-furan-3-yl ester] |
| 16% | 16% | 13% | 11 to 100 nM | 11 to 100 nM | 11 to 100 nM | – | Cc1nc(-c2cccc(NC(=O)N3CCN(C(=O)c4cccc(F)c4)CC3)c2)no1 [Compound 30, 4-(3-Fluoro-benzoyl)-piperazine-1-carboxylic acid [3-(5-methyl-[1,2,4]oxadiazol-3-yl)-phenyl]-amide] |
| −22% | -22% | −13% | 11 to 100 nM | 11 to 100 nM | 11 to 100 nM | – | O=C(Nc1nc(-c2ccccc2)cs1)N1CCN(C(=O)c2cccc(F)c2)CC1 [Compound 69, 4-(3-Fluoro-benzoyl)-piperazine-1-carboxylic acid (4-phenyl-thiazol-2-yl)-amide] |
| 20% | 20% | −2% | 11 to 100 nM | 11 to 100 nM | 101 to 1000 nM | – | Cn1cnnc1-c1cccc(NC(=O)N2CCN(C(=O)c3cccc(F)c3)CC2)c1 [Compound 76, 4-(3-Fluoro-benzoyl)-piperazine-1-carboxylic acid [3-(4-methyl-4H-[1,2,4]triazol-3-yl)-phenyl]-amide] |
| – | – | – | – | – | 101 to 1000 nM | > 60 min | O=C(Nc1ccc(NC(=O)N2CCN(C(=O)c3cccc(F)c3)CC2)cc1)c1ccncc1 [Compound 123, 4-(3-Fluoro-benzoyl)-piperazine-1-carboxylic acid {4-[(pyridine-4-carbonyl)-amino]-phenyl}-amide] |
| – | – | – | – | – | 101 to 1000 nM | > 60 min | CS(=O)(=O)Nc1ccc(NC(=O)N2CCN(C(=O)c3cccc(F)c3)CC2)cc1 [Compound 126, 4-(3-Fluoro-benzoyl)-piperazine-1-carboxylic acid (4-methanesulfonylamino-phenyl)-amide] |
| – | – | – | – | – | 11 to 100 nM | > 60 min | O=C(Nc1ccc(N2CCOCC2)nc1)N1CCN(C(=O)c2cccc(F)c2)CC1 [Compound 154, 4-(3-Fluoro-benzoyl)-piperazine-1-carboxylic acid (6-morpholin-4-yl-pyridin-3-yl)-amide] |
| – | – | – | – | – | 101 to 1000 nM | 59.4 min | O=C(Nc1ccc(F)cc1)N1CCN(C(=O)c2cccc(F)c2)CC1 [Compound 155, 4-(3-Fluoro-benzoyl)-piperazine-1-carboxylic acid (4-fluoro-phenyl)-amide] |
| – | – | – | – | – | 101 to 1000 nM | 31.4 min | Cc1ccccc1C(=O)N1CCN(C(=O)Nc2ccc(F)cc2)CC1 [Compound 156, 4-(2-Methyl-benzoyl)-piperazine-1-carboxylic acid (4-fluoro-phenyl)-amide] |
| – | -1% | – | 101 to 1000 nM | – | – | – | O=C(Nc1cc(C(F)(F)F)cc(C(F)(F)F)c1)N1CCN(C(=O)c2ccco2)CC1 [Compound I, 4-(Furan-2-carbonyl)-piperazine-1-carboxylic acid (3,5-bis-trifluoromethyl-phenyl)-amide, reference compound] |
| – | -17% | – | 101 to 1000 nM | – | – | – | O=C(Nc1cc(Cl)cc(Cl)c1)N1CCN(C(=O)c2ccco2)CC1 [Compound II, 4-(Furan-2-carbonyl)-piperazine-1-carboxylic acid (3,5-dichloro-phenyl)-amide, reference compound] |
| – | -8% | – | 101 to 1000 nM | – | – | – | O=C(Nc1cc(C(F)(F)F)ccc1Cl)N1CCN(C(=O)c2ccco2)CC1 [Compound III, 4-(Furan-2-carbonyl)-piperazine-1-carboxylic acid (2-chloro-5-trifluoromethyl-phenyl)-amide, reference compound] |
| – | -7% | – | 101 to 1000 nM | – | – | – | O=C(c1ccco1)N1CCN(C(=S)Nc2cc(Cl)cc(Cl)c2)CC1 [Compound IV, 4-(Furan-2-carbonyl)-piperazine-1-carbothioic acid (3,5-dichloro-phenyl)-amide, reference compound] |
| – | 10% | – | 101 to 1000 nM | – | – | – | O=C(c1ccccc1)N1CCN(C(=S)Nc2cc(C(F)(F)F)cc(C(F)(F)F)c2)CC1 [Compound IX, 4-Benzoyl-piperazine-1-carbothioic acid (3,5-bis-trifluoromethyl-phenyl)-amide, reference compound] |
| – | -20% | – | 101 to 1000 nM | – | – | – | O=C(c1ccco1)N1CCN(C(=S)Nc2cc(C(F)(F)F)ccc2Cl)CC1 [Compound V, 4-(Furan-2-carbonyl)-piperazine-1-carbothioic acid (2-chloro-5-trifluoromethyl-phenyl)-amide, reference compound] |
| – | 4% | – | – | – | – | – | O=C(c1ccco1)N1CCN(C(=S)Nc2cc(C(F)(F)F)cc(C(F)(F)F)c2)CC1 [Compound VI, 4-(Furan-2-carbonyl)-piperazine-1-carbothioic acid (3,5-bis-trifluoromethyl-phenyl)-amide] |
| – | -10% | – | 11 to 100 nM | – | – | – | O=C(Nc1cc(Cl)cc(Cl)c1)N1CCN(C(=O)c2ccccc2)CC1 [Compound VII, 4-Benzoyl-piperazine-1-carboxylic acid (3,5-dichloro-phenyl)-amide, reference compound] |
| – | -3% | – | 101 to 1000 nM | – | – | – | O=C(Nc1cc(C(F)(F)F)ccc1Cl)N1CCN(C(=O)c2ccccc2)CC1 [Compound VIII, 4-Benzoyl-piperazine-1-carboxylic acid (2-chloro-5-trifluoromethyl-phenyl)-amide, reference compound] |
| – | -10% | – | 101 to 1000 nM | – | – | – | O=C(c1ccccc1)N1CCN(C(=S)Nc2cc(Cl)cc(Cl)c2)CC1 [Compound X, 4-Benzoyl-piperazine-1-carbothioic acid (3,5-dichloro-phenyl)-amide, reference compound] |
| – | -12% | – | 11 to 100 nM | – | – | – | O=C(c1ccccc1)N1CCN(C(=S)Nc2cc(C(F)(F)F)ccc2Cl)CC1 [Compound XI, 4-Benzoyl-piperazine-1-carbothioic acid (2-chloro-5-trifluoromethyl-phenyl)-amide, reference compound] |
| – | -14% | – | 11 to 100 nM | – | – | – | O=C(c1ccccc1)N1CCN(C(=S)Nc2ccc(C(F)(F)F)cc2)CC1 [Compound XII, 4-Benzoyl-piperazine-1-carbothioic acid (4-trifluoromethyl-phenyl)-amide, reference compound] |
